According to US20230114728A1 (Venatorx Pharmaceuticals, Inc., priority 2019, published 2023):
Values after ≈ are worked out from the molar mass of the structure shown.

Tests used:
N. gonorrhoeae FA1090 = test: Liquid broth MIC in Fastidious broth; type: cell-based; settings: Neisseria gonorrhoeae; N. gonorrhoeae strain FA1090; Fastidious broth; read-out: Minimum Inhibitory Concentration, N. gonorrhoeae FA1090
How it was run: (§1)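 Colonies were swabbed from chocolate agar after 24 h growth and standardised by optical density at 600 nm. Compounds were serially diluted twofold in Fastidious broth, and bacteria added to give 5×10^5 CFU/mL. After about 24 h at 36 °C in 5% CO2, the lowest concentration allowing under 10% growth was taken as MIC.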

N. gonorrhoeae WHO L = test: Liquid broth MIC in Fastidious broth; type: cell-based; settings: Neisseria gonorrhoeae; N. gonorrhoeae strain WHO L; Fastidious broth; read-out: Minimum Inhibitory Concentration, N. gonorrhoeae WHO L
How it was run: as §1

N. gonorrhoeae WHO K = test: Liquid broth MIC in Fastidious broth; type: cell-based; settings: Neisseria gonorrhoeae, read-out: Minimum Inhibitory Concentration, N. gonorrhoeae WHO K
How it was run: (§2)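 Broth microdilution in Fastidious broth with 2-fold compound series; inoculum from 24 h chocolate agar colonies, 5×10^5 CFU/mL start. Incubated ~24 hours at 36° C, 5% CO2. MIC read visually as lowest concentration giving <10% growth versus full-growth wells; strains carry mosaic PBP2.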

[1] = system: N. gonorrhoeae ATCC 49226; test: Liquid broth MIC in Fastidious broth; type: cell-based; settings: Neisseria gonorrhoeae, ATCC49226; N. gonorrhoeae strain ATCC 49226; Fastidious broth; read-out: Minimum Inhibitory Concentration, N. gonorrhoeae ATCC 49226
How it was run: as §1

N. gonorrhoeae WHO G = test: Liquid broth MIC in Fastidious broth; type: cell-based; settings: Neisseria gonorrhoeae; N. gonorrhoeae strain WHO G; Fastidious broth; read-out: Minimum Inhibitory Concentration, N. gonorrhoeae WHO G
How it was run: as §1

N. gonorrhoeae H041 = test: Liquid broth MIC in Fastidious broth; type: cell-based; settings: Neisseria gonorrhoeae, H041, read-out: Minimum Inhibitory Concentration, N. gonorrhoeae H041
How it was run: as §2

E. coli K12 PBP3 = target: T1, E. coli K12 PBP3 (Escherichia coli, UniProt P0AD68); test: biochemical; type: binding
T1 construct: made in house
T1 sequence (P0AD68 1-577): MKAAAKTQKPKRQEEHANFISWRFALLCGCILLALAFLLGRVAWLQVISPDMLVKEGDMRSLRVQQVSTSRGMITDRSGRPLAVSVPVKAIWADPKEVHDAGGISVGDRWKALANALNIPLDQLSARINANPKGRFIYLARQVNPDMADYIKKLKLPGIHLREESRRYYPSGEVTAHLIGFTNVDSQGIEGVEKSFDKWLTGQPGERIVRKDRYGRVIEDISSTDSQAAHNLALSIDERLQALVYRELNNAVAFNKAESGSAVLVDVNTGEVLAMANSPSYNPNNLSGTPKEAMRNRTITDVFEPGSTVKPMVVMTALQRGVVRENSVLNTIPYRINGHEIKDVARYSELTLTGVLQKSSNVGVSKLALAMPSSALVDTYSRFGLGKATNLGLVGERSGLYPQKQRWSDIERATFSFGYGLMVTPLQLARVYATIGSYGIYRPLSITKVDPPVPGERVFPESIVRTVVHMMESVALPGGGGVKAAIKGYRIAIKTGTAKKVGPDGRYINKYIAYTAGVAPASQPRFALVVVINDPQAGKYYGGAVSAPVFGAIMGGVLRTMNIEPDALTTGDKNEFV
How it was run: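 A. baumannii PBP2 (2.5 μM) and PBP3 (0.2 μM) were run in 25 mM Tris pH 8.0 buffer with Tween 20; E. coli PBP3 (1.5 μM) and N. gonorrhoeae PBP2 ([…]) in 50 mM Hepes pH 8.0 buffer.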

`CCN1CCN(C(=O)NC(C(=O)N[C@H]2Cc3cccc(C(=O)O)c3OB2O)c2cccc(NC(=O)c3cccnc3)c2)C(=O)C1=O` (stereo partly drawn) [Example 97, (3R)-3-(2-(4-ethyl-2,3-dioxopiperazine-1-carboxamido)-2-(3-(nicotinamido)phenyl)acetamido)-2-hydroxy-3,4-dihydro-2H-benzo[e][1,2]oxaborinine-8-carboxylic acid] was tested, and the MIC (N. gonorrhoeae FA1090) was 1 to 2 µg/mL (≈ 1.59 to 3.18 µM), the MIC (N. gonorrhoeae WHO L) was > 64 µg/mL and the MIC (N. gonorrhoeae WHO K) was > 64 µg/mL. The MIC [1] was > 64 µg/mL, the MIC (N. gonorrhoeae WHO G) was 4 to 8 µg/mL (≈ 6.37 to 12.7 µM) and the MIC (N. gonorrhoeae H041) was > 64 µg/mL. For the same compound, the EC50 (E. coli K12 PBP3) was < 30 µM.
In the case of `CCN1CCN(C(=O)NC(C(=O)N[C@H]2Cc3cccc(C(=O)O)c3OB2O)c2cccc(NS(N)(=O)=O)c2)C(=O)C1=O` (stereo partly drawn) [Example 98, (3R)-3-(2-(4-ethyl-2,3-dioxopiperazine-1-carboxamido)-2-(3-(sulfamoylamino)phenyl)acetamido)-2-hydroxy-3,4-dihydro-2H-benzo[e][1,2]oxaborinine-8-carboxylic acid], the MIC (N. gonorrhoeae FA1090) is reported as 0.25 to 0.5 µg/mL (≈ 0.415 to 0.83 µM), the MIC (N. gonorrhoeae WHO L) is reported as > 64 µg/mL and the MIC (N. gonorrhoeae WHO K) is reported as 16 to 32 µg/mL (≈ 26.6 to 53.1 µM). The MIC [1] was 16 to 32 µg/mL (≈ 26.6 to 53.1 µM), the MIC (N. gonorrhoeae WHO G) was 1 to 2 µg/mL (≈ 1.66 to 3.32 µM) and the MIC (N. gonorrhoeae H041) was 16 to 32 µg/mL (≈ 26.6 to 53.1 µM). The EC50 (E. coli K12 PBP3) was < 30 µM.
For `CCN1CCN(C(=O)NC(C(=O)N[C@H]2Cc3cccc(C(=O)O)c3OB2O)c2cccc(S(N)(=O)=O)c2)C(=O)C1=O` (stereo partly drawn) [Example 99, (3R)-3-(2-(4-ethyl-2,3-dioxopiperazine-1-carboxamido)-2-(3-sulfamoylphenyl)acetamido)-2-hydroxy-3,4-dihydro-2H-benzo[e][1,2]oxaborinine-8-carboxylic acid], the MIC (N. gonorrhoeae FA1090) was 0.25 to 0.5 µg/mL (≈ 0.426 to 0.851 µM), the MIC (N. gonorrhoeae WHO L) was > 64 µg/mL and the MIC (N. gonorrhoeae WHO K) was 16 to 32 µg/mL (≈ 27.2 to 54.5 µM). It also gave an MIC [1] of 16 to 32 µg/mL (≈ 27.2 to 54.5 µM), an MIC (N. gonorrhoeae WHO G) of 1 to 2 µg/mL (≈ 1.7 to 3.4 µM) and an MIC (N. gonorrhoeae H041) of 16 to 32 µg/mL (≈ 27.2 to 54.5 µM). For the same compound, the EC50 (E. coli K12 PBP3) was 30 to 500 µM.
